Consider seven molecules from patent US20110130390A1, “Use of COX-2 Inhibitors for the Treatment of Schizophrenia, Delusional Disorders, Affective Disorders, Autism or Tic Disorders” (priority 2001, published 2011).

The subject of one data set is DBA/2Ola mice. As to the kind of experiment: Forced swim test. Type of data set: in vivo.
Excerpt: Various behavioral test paradigms have been developed for evaluating the antidepressant properties of novel drugs in animals. One of the most reliable and specific paradigm is the forced swim test which has been successfully used to determine the effectiveness of antidepressants, evaluate new pharmaceutical compounds and validate animal models of depression (Porsolt et al. (1977) Arch. Int. Pharmacodym. 229:327-336; Porsolt (2000) Rev. Neurosci. 11:53-58; Rénńric et al. (2002)Behav. Brain Res. 136:521-532; Page et al. (2003) Psychopharmacology 165:194-201; Kelliher et al. (2003) Psychoneuroendocrinology 28:332-347). The test consists of placing a mouse for a period of 5 minutes into a glass cylinder containing a water depth of at least 15 cm. Under such circumstances, a mouse cannot touch the bottom of the cylinder and is thus forced to swim. Time, latency and frequency of struggling/swimming versus floating are scored as behavioral parameters. Floating (i.e. movements made only for keeping balance and breath) can be interpreted as a depression-like behavior that reflects either a failure of persistent escape-directed behavior (i.e. behavioral despair) or the development of passive behavior that disengages the animal from active forms of coping with stress stimuli. By contrast, increased struggling (i.e. vigorous attempts to escape) and swimming indicates active coping behavior and can be interpreted as an opposite to depression-like behavior.
The antidepressant activity of rofecoxib was assessed in animals according to the forced swim test. Briefly, rofecoxib was given orally by gavage to mice either in a single acute administration of 10 mg or in a repetitive chronic administration of 4 mg per day (2 mg at 9:00 in the morning, 2 mg at 18:00 in the evening) for 28 days. Control animals received a negative control consisting of water only. The forced swim test was performed 4 hour after the last administration of rofecoxib. […] All observed results were confirmed statistically using the one-way ANOVA test.
(§1) The antidepressant activity of valdecoxib was assessed in DBA/2Ola mice according to the forced swim test. Briefly, chronic administration of valdecoxib was performed by oral gavage for 28 days at a concentration of 4 mg per day (2 mg at 9:00 in the morning, 2 mg at 18:00 in the evening) and 20 mg per day (10 mg at 9:00 in the morning, 10 mg at 18:00 in the evening). Control animals received a placebo consisting of water only. The behavior of individual animals was assessed using the forced swim test 24 hours after the last administration of valdecoxib. A pre-exposure of 5 minutes to the test was done 4 hours after the last administration of valdecoxib. All observed results were confirmed statistically using the one-way ANOVA test.
as §1, with “etoricoxib” for “valdecoxib”, “DBA/201a” for “DBA/2Ola”, “etoricoxib” for “chronic administration of valdecoxib”, “chronically administered to mice” for “performed”, “etoricoxib.” for “valdecoxib.”
The antidepressant activity of the COX-2 inhibitor Cimicoxib was assessed in DBA/2Ola mice using the forced swim test. Briefly, chronic administration of cimicoxib was performed by oral gavage to mice for 28 days at a concentration of 2 or 10 mg per kg bodyweight per day (1 or 5 mg at 9:00 in the morning, 1 or 5 mg at 18:00 in the evening). Control animals received a placebo consisting of water only. […]

The format of data set [1] is in vivo, human. Particulars: FIG. 4.
Data set [2] relates to depressed patients. Kind of data set: Hamilton-Depression scale, 17-item version (HamD), celecoxib add-on to reboxetine trial. Type of data set: in vivo, human. Particulars: 400 mg/day add-on to reboxetine, 6 weeks; ANOVA, Greenhouse-Geisser-corrected F=3.220; df 2.434; p=0.035; FIG. 10.
Procedure: The psychopathology of the patients was assessed by raters, who had undergone a training program, using the Hamilton-Depression scale, 17-item version (HamD), 24 Assessment of psychopathology and other examinations were performed at weekly intervals.
For statistics, analysis of variance was used for the HamD scale. The degrees of freedom for the within-subjects comparisons were corrected for deviance from sphericity (Greenhouse-Geisser). Post-hoc t tests were used for the weekly comparison of HamD scores. An intent to treat analysis was performed using the “last observation carried forward” (LOCF) procedure.
Data set [3] concerns depressed patients. As to the kind of experiment: Drop-outs and side-effects in the celecoxib add-on to reboxetine trial. Particulars: celecoxib 400 mg/day add-on to reboxetine, n = 20.
Setting [4] is: chronic oral gavage 28 days, 4 mg per day and 20 mg per day, test 24 hours after the last administration.
[5] abbreviates: chronic oral 4 mg per day for 28 days, test 4 hour after the last administration, FIG. 6.
The mark [6] stands for this setting: single acute oral administration of 10 mg, test 4 hour after administration, FIG. 6.
Where [7] appears, read: chronic oral gavage 28 days, 2 or 10 mg per kg bodyweight per day, test 4 hours after the last administration, FIG. 9.

Procedure for schizophrenic patients: The psychopathology of the patients was assessed using the positive and negative syndrome scale (PANSS) (Kay et al., Schizophr. Bull. 1987, 13: 261-276). […] The statistics were performed according to the criterion of “last observation carried forward” (LOCF), i.e., the last PANSS scores of the patients who dropped out before the end of the study were carried forward to all subsequent observation days. For the comparison of the main efficacy parameter, the mean change in the PANSS between the two treatment groups, t-tests for independent samples were employed. […] For all other comparisons, two-tailed t-tests were used.

As to `Cc1onc(-c2ccccc2)c1-c1ccc(S(N)(=O)=O)cc1` [valdecoxib], in the data set on DBA/2Ola mice (setting [4]), the floating time entry is “decreasing” and the “struggling or swimming times” value is on record as “statistically increased”.
Regarding `Cc1nc2n(c(=O)c1CCN1CCC(c3noc4cc(F)ccc34)CC1)CCCC2` [risperidone], in data set [1], the “differences in the plasma levels between risperidone-celecoxib and risperidone-placebo treatment” value is “without statistical significance”.
etoricoxib: in the data set with DBA/2Ola mice (setting [4]), the floating time result is listed as “decreasing” and the “struggling or swimming times” value is “statistically increased or showed a tendency to increase”.
In the case of rofecoxib, the floating time entry in the data set on DBA/2Ola mice (setting [5]) and in the data set on DBA/2Ola mice (setting [6]) was “decreasing” in each case. Moreover, the “struggling or swimming times” value in the data set with DBA/2Ola mice (setting [5]) and in the data set with DBA/2Ola mice (setting [6]) was “statistically increased” each time.
Take `Cc1ccc(-c2cc(C(F)(F)F)nn2-c2ccc(S(N)(=O)=O)cc2)cc1` [celecoxib]: the “comparison of HamD scores during therapy with celecoxib or placebo” value in the data set on depressed patients [2] is reported as “advantage of celecoxib-group”. Besides, the “PANSS items lack of contact, emotional isolation, passive-apathic isolation, social withdrawal, depression, motor retardation” value with schizophrenic patients (analysis of items discriminating good celecoxib-responders from the placebo group) is recorded as “therapeutic effects”. Further, in the data set on schizophrenic patients (factor analysis, not seen with placebo), the “PANSS items subsumed under the label agitation” value was “good therapeutic response”. In the data set on depressed patients [3], the “cardiovascular events or side-effects, clinically and by ECG surveillance” value is recorded as “no cardiovascular events or side-effects were observed”; the “patients excluded or refusing further treatment due to a lack of therapeutic efficacy” value is given as “Five”.
In the case of `COc1ccc(-c2c(Cl)ncn2-c2ccc(S(N)(=O)=O)cc2)cc1F` [cimicoxib], in the data set on DBA/2Ola mice (setting [7]), the floating time result is recorded as “decrease” and the “struggling or swimming times” value is listed as “statistically significant increase”.
Take `Cc1nc2n(c(=O)c1CCN1CCC(c3noc4cc(F)ccc34)CC1)CCCC2O` (centres unmarked) [9-OH-risperidone]: the “differences in the plasma levels between risperidone-celecoxib and risperidone-placebo treatment” value in data set [1] is given as “without statistical significance”.
